According to patent US10023836B2, “Medium for yeasts” (YAMAGUCHI UNIVERSITY, priority 2012, dated 2018):

Experiments:
[1] = tested on: RAK3599 strain; experiment: Investigation with AID and aY-AID culture medium (FIGS. 29 to 39); assay type: cell-based, Saccharomyces cerevisiae; settings: for effect on proliferation when added at high concentrations: up to 1% or up to 0.2500%; for preferred concentration / content: AID or aY-AID culture medium
Method: As shown in the following, an investigation was conducted into concentrations of each amino acid and a substitution potential of pantothenic acid for the amino acid in the AID culture medium. A suitable YPD culture medium was used as a control.
Next, the amino acids asparagine, isoleucine, phenylalanine, and valine were each adjusted to a culture medium additive concentration of […], 0.0312%, 0.0625%, 0.1250%, and 0.2500%, and OD600 was measured after 24 hours.
Isoleucine concentration in the aY-AID culture medium was adjusted to 0, 0.01 mg/mL, 0.1 mg/mL, 0.5 mg/mL, and 1 mg/mL, respectively, and proliferation of the RAK3599 strain was investigated.
Phenylalanine concentration in the aY-AID culture medium was adjusted to 0, 0.01, 0.1, 0.5, and 1 mg/mL, respectively, and proliferation of the RAK3599 strain was investigated.
Valine concentration in the aY-AID culture medium was adjusted to 0, 0.01, 0.1, 0.5, and 1 mg/mL, respectively, and proliferation of the RAK3599 strain was investigated.
Serine concentration in the AID culture medium was adjusted to 0, 0.01 mg/mL, 0.1 mg/mL, 0.5 mg/mL, and 1 mg/mL, respectively, and proliferation of the RAK3599 strain was investigated.
Threonine concentration in the AID culture medium was adjusted to 0, 0.01, 0.1, 0.5, and 1 mg/mL, respectively, and proliferation of the RAK3599 strain was investigated.
Asparagine concentration in the AID culture medium was adjusted to 0, 0.01, 0.1, 0.5, and 1 mg/mL, respectively, and proliferation of the RAK3599 strain was investigated.
An investigation was conducted into vitamins contained in the AID culture medium. […]

[2] = tested on: Saccharomyces cerevisiae RAK3599 strain; experiment: SynAA culture medium: elimination of single components and inorganic ion concentration; assay type: cell-based; settings: one component of the vitamin mix eliminated from SynAA culture medium
Method: (§1) In a case where no special provisions are made, a procedure for a cultivation experiment using the culture medium to be investigated for proliferation was such that a yeast undergoing investigation was pre-cultured in a YPD liquid culture medium at 28° C. for 24 hours, after which the yeast was adjusted such that OD600=20. […] In addition, OD600 was measured every 15 minutes by a spectrophotometer (Cell density meter co8000, WPA). Hereafter, data is represented by graphs for a case using the automatic spectrophotometer; however, these graphs are primarily used to compare the slope of logarithmic growth phase proliferation curves for each culture medium, and because OD600 is measured without dilution, values where OD600=3 to 3.5 or more may be incorrect.
Culture mediums were prepared in which one component each of the components configuring the inorganic ion mix was eliminated from the SynAA culture medium, and OD600 was measured. […] Thereafter, an investigation specifically of inorganic ion concentration was conducted. […] An investigation was conducted using RAK3599 strain (hereafter, simply referred to as “RAK3599 strain”), which is a strain of Saccharomyces cerevisiae not having a particular nutritional requirement. Where no subsequent special provisions were made, proliferation was investigated by performing roller tube culture for an appropriate amount of time at 28° C. and measuring OD600.
MgSO4 concentration in the SynAA culture mediums was adjusted to 0%, 0.0001%, 0.001%, 0.01%, 0.1%, and 1%, respectively, and proliferation of the RAK3599 strain was investigated. […] Next, MgCl2 concentration in the SynAA culture mediums was adjusted to 0.001%, 0.01%, 0.1%, and 1%, respectively, and proliferation of the RAK3599 strain was investigated.
A culture medium was prepared in which one component each of the components configuring the vitamin mix was eliminated from the SynAA culture medium, with the SynAA culture medium as the control, and proliferation of the RAK3599 strain was investigated.

[3] = tested on: RAK3599 strain; experiment: Vitamin and FeCl3 concentration in AKD′ culture medium (FIGS. 22 to 28); assay type: cell-based, Saccharomyces cerevisiae
Method: as §1
Pyridoxine concentration in the AKD′ culture medium was adjusted to 0, 0.004, 0.04, 0.4, 4, and 40 μg/mL, respectively, and proliferation of the RAK3599 strain was investigated.
Pantothenic acid concentration in the AKD′ culture medium was adjusted to 0, 0.004, 0.04, 0.4, 4, and 40 μg/mL, respectively, and proliferation of the RAK3599 strain was investigated.
Thiamine concentration in the AKD′ culture medium was adjusted to 0, 0.004, 0.04, 0.4, 4, and 40 μg/mL, respectively, and proliferation of the RAK3599 strain was investigated.
Nicotinic acid concentration in the AKD′ culture medium was adjusted to 0, 0.004, 0.04, 0.4, 4, and 40 μg/mL, respectively, and proliferation of the RAK3599 strain was investigated.
Myo-inositol concentration in the AKD′ culture medium was adjusted to 0, 0.02 μg/mL, 0.2 μg/mL, 2 μg/mL, 20 μg/mL, and 200 μg/mL, respectively, and proliferation of the RAK 3599 strain was investigated.
FeCl3 concentration in the AKD′ culture medium was adjusted to 0, 0.002, 0.02, 0.2, 2, and 20 μg/mL, respectively, and proliferation of the RAK3599 strain was investigated.

[4] = aY-AID culture medium, concentration of the substance 0
[5] = aY-AID culture medium, concentration of the substance 0.01 mg/mL
[6] = aY-AID culture medium, concentration of the substance 0.1 mg/mL
[7] = aY-AID culture medium, concentration of the substance 0.5 mg/mL
[8] = aY-AID culture medium, concentration of the substance 1 mg/mL

N[C@@H](Cc1ccccc1)C(=O)O [Phenylalanine, L-Phenylalanine]
effect on proliferation when added at high concentrations ([1]; AID culture medium): a positive influence was imparted to proliferation
preferred concentration / content [1]: around 1 g/L
OD600 after 24 hours [1, 4]: 17
OD600 after 24 hours [1, 5]: 17
OD600 after 24 hours [1, 6]: 19
OD600 after 24 hours [1, 7]: 19
OD600 after 24 hours [1, 8]: 19

N[C@@H](CO)C(=O)O [Serine, L-Serine]
content at which proliferation particularly increased ([1]; AID culture medium): around 0.5 mg/mL
effect on proliferation when added at high concentrations ([1]; AID culture medium): a positive influence was imparted to proliferation
preferred concentration / content [1]: around 0.5 g/L

CC(C)[C@H](N)C(=O)O [Valine, L-VALINE]
effect on proliferation when added at high concentrations ([1]; AID culture medium): a positive influence was imparted to proliferation
preferred concentration / content [1]: around 1 g/L
OD600 after 24 hours [1, 4]: 16
OD600 after 24 hours [1, 5]: 15
OD600 after 24 hours [1, 6]: 15
OD600 after 24 hours [1, 7]: 16
OD600 after 24 hours [1, 8]: 16

CC(=O)N[C@@H](Cc1ccc(O)cc1)C(=O)O [acetyl tyrosine, N-acetyl tyrosine]
OD600 after 24 hours ([1]; AID culture medium, acetyl tyrosine 0 mg/mL): 13
OD600 after 24 hours ([1]; AID culture medium, acetyl tyrosine 0.01 mg/mL): 14
OD600 after 24 hours ([1]; AID culture medium, acetyl tyrosine 0.1 mg/mL): 15
OD600 after 24 hours ([1]; AID culture medium, acetyl tyrosine 0.5 mg/mL): 14
OD600 after 24 hours ([1]; AID culture medium, acetyl tyrosine 1 mg/mL): 15
OD600 after 24 hours ([1]; AID culture medium, acetyl tyrosine 2 mg/mL): 18
preferred concentration / content [1]: about 1 g/L

OB(O)O [boric acid]
essentiality for increasing proliferation [2]: not be essential components

Nc1nc2ncc(CNc3ccc(C(=O)N[C@@H](CCC(=O)O)C(=O)O)cc3)nc2c(=O)[nH]1 [folic acid]
essentiality for increasing proliferation [2]: not be essential components

O[C@H]1[C@H](O)[C@@H](O)[C@H](O)[C@@H](O)[C@H]1O [inositol, myo-inositol]
proliferation versus inositol content ([3]; AKD′ culture medium, myo-inositol 0 to 200 μg/mL): Proliferation increased in proportion to an increase in inositol content
proliferation compared with AKD′ ([3]; inositol added at 10%): below that of AKD′

CC(C)(CO)[C@@H](O)C(=O)NCCC(=O)O [pantothenic acid]
essentiality for increasing proliferation [2]: essential components
concentration at which proliferation was inhibited ([3]; AKD′ culture medium): 40 µg/mL
preferred concentration ([3]; AKD′ culture medium): around 4000 μg/L
proliferation at a content of 0 ([3]; AKD′ culture medium without the substance): no proliferation whatsoever

Nc1ccc(C(=O)O)cc1 [para-aminobenzoic acid]
effect on proliferation ([1]; vitamins contained in the AID culture medium (FIG. 38)): no effect to particularly increase proliferation

Cc1cc2nc3c(=O)[nH]c(=O)nc-3n(C[C@H](O)[C@H](O)[C@H](O)CO)c2cc1C [riboflavin]
essentiality for increasing proliferation [2]: not be essential components

NCCC(=O)O [β-alanine]
substitution potential of pantothenic acid ([1]; AID culture medium (FIG. 39A)): confirmed to be substituted with pantothenic acid
concentration capable of substitution with pantothenic acid ([1]; AID culture medium (FIG. 39B)): ≥ 0.4 µg/mL
